According to the NIST ThermoML archive (doi:10.1021/acs.jced.8b00132):
Several values for one entry are separate records, joined by “and”; a condition that tells them apart may be missing. Equal values may be shown once.

Settings: Liquid, transient hot wire

O=C(C(F)(F)C(F)(F)F)C(F)(C(F)(F)F)C(F)(F)F [dodecafluoro-2-methylpentan-3-one]
Settings | thermal conductivity
212.68 K, 43023 kPa | 0.08262 W/m/K
212.69 K, 34811 kPa | 0.08103 W/m/K
212.7 K, 26854 kPa | 0.0791 W/m/K
212.7 K, 34796 kPa | 0.08096 W/m/K
212.71 K, 19432 kPa | 0.07795 W/m/K
212.71 K, 26846 kPa | 0.07958 W/m/K
212.72 K, 19443 kPa | 0.07837 W/m/K
212.73 K, 12670 kPa | 0.07626 W/m/K
212.73 K, 12671 kPa | 0.0764 W/m/K
212.75 K, 5793 kPa | 0.07492 W/m/K
212.75 K, 5801 kPa | 0.0748 W/m/K
212.77 K, 172 kPa | 0.07396 W/m/K
212.79 K, 181 kPa | 0.07378 W/m/K
213.1 K, 67106 kPa | 0.08599 W/m/K and 0.08628 W/m/K
213.11 K, 60772 kPa | 0.08539 W/m/K
213.11 K, 60780 kPa | 0.08539 W/m/K
213.13 K, 52081 kPa | 0.08389 W/m/K
213.13 K, 52089 kPa | 0.08383 W/m/K
213.19 K, 43027 kPa | 0.08245 W/m/K
213.19 K, 43036 kPa | 0.08268 W/m/K
213.21 K, 34805 kPa | 0.08073 W/m/K
213.21 K, 34810 kPa | 0.08114 W/m/K
213.23 K, 26845 kPa | 0.07947 W/m/K
213.24 K, 26846 kPa | 0.07959 W/m/K
213.25 K, 19430 kPa | 0.07775 W/m/K
213.25 K, 19435 kPa | 0.0774 W/m/K
213.27 K, 12661 kPa | 0.07617 W/m/K
213.28 K, 12679 kPa | 0.0761 W/m/K
213.31 K, 5806 kPa | 0.07469 W/m/K
213.31 K, 5813 kPa | 0.07468 W/m/K
213.33 K, 173 kPa | 0.07373 W/m/K
213.33 K, 180 kPa | 0.07364 W/m/K
213.62 K, 67087 kPa | 0.08645 W/m/K
213.63 K, 67097 kPa | 0.08628 W/m/K
213.64 K, 60766 kPa | 0.08543 W/m/K
213.65 K, 60770 kPa | 0.08553 W/m/K
213.67 K, 52073 kPa | 0.08388 W/m/K
213.67 K, 52074 kPa | 0.08401 W/m/K
213.74 K, 43029 kPa | 0.08234 W/m/K
213.75 K, 43019 kPa | 0.08232 W/m/K
241.26 K, 25699 kPa | 0.0759 W/m/K
241.27 K, 25696 kPa | 0.07599 W/m/K
241.32 K, 12027 kPa | 0.07227 W/m/K and 0.07234 W/m/K
241.33 K, 18761 kPa | 0.07423 W/m/K
241.33 K, 18763 kPa | 0.0739 W/m/K
241.38 K, 209 kPa | 0.06892 W/m/K and 0.06884 W/m/K
241.39 K, 5841 kPa | 0.07049 W/m/K
241.39 K, 5844 kPa | 0.07044 W/m/K
241.62 K, 33678 kPa | 0.07765 W/m/K
241.63 K, 33700 kPa | 0.07761 W/m/K
241.64 K, 41986 kPa | 0.0795 W/m/K
241.65 K, 41994 kPa | 0.07941 W/m/K
241.65 K, 50824 kPa | 0.0813 W/m/K
241.65 K, 50825 kPa | 0.08126 W/m/K
241.66 K, 60321 kPa | 0.08312 W/m/K
241.66 K, 60336 kPa | 0.08322 W/m/K
241.67 K, 25701 kPa | 0.07567 W/m/K
241.68 K, 25692 kPa | 0.0752 W/m/K
241.68 K, 68451 kPa | 0.08416 W/m/K
241.68 K, 68475 kPa | 0.0844 W/m/K
241.74 K, 18761 kPa | 0.07395 W/m/K
241.75 K, 12028 kPa | 0.07237 W/m/K
241.75 K, 18761 kPa | 0.07396 W/m/K
241.76 K, 12022 kPa | 0.07209 W/m/K
241.83 K, 210 kPa | 0.06806 W/m/K
241.83 K, 5847 kPa | 0.06983 W/m/K
241.84 K, 211 kPa | 0.06786 W/m/K
241.84 K, 5846 kPa | 0.07 W/m/K
242.08 K, 33680 kPa | 0.0771 W/m/K
242.08 K, 60313 kPa | 0.08307 W/m/K
242.09 K, 33695 kPa | 0.07709 W/m/K
242.09 K, 41985 kPa | 0.07857 W/m/K
242.09 K, 50804 kPa | 0.081 W/m/K
242.09 K, 50825 kPa | 0.08098 W/m/K
242.1 K, 41988 kPa | 0.07839 W/m/K
242.1 K, 60314 kPa | 0.08294 W/m/K
242.1 K, 68448 kPa | 0.08374 W/m/K
242.11 K, 68433 kPa | 0.08377 W/m/K
242.14 K, 25700 kPa | 0.07474 W/m/K
242.14 K, 25703 kPa | 0.07481 W/m/K
242.23 K, 18760 kPa | 0.07343 W/m/K
242.23 K, 18761 kPa | 0.07341 W/m/K
242.24 K, 12027 kPa | 0.07149 W/m/K
242.24 K, 12030 kPa | 0.07138 W/m/K
